SMILES strings stand for the structures.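 Tested at 5 concentrations; 48 h exposure; 96-well plates; endpoints linearly interpolated, else capped at highest concentration. At the TGI there is no net growth.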

Among the test systems are SN12C renal; RPMI-8226 leukemia; M19-MEL melanoma; UACC-257 melanoma; SK-MEL-5 melanoma; NCI-H226 lung; SW-620 colon; U251 CNS; SNB-78 CNS; SF-295 CNS; HOP-18 NSCLC; T-47D breast; MDA-MB-231 breast.
Assay in all cases: growth of human tumour cells (NCI), 48 h

As to `CCCCOC1CC2(c3ccc(OC)cc3)C(=O)c3ccccc3N2O1` (centres undefined), the TGI is over 10 µM with SN12C renal; 65.7 µM in the test with RPMI-8226 leukemia; over 10 µM in the test on M19-MEL melanoma; 70.1 µM in the test on UACC-257 melanoma; 88.4 µM in the test with SK-MEL-5 melanoma; over 10 µM with NCI-H226 lung. The TGI was over 100 µM with SW-620 colon, over 10 µM in the test on U251 CNS, over 10 µM with SNB-78 CNS and over 100 µM in the test on SF-295 CNS.

Consider `CC1=C/C(=C(\c2ccc(N(C)C)cc2)c2ccc([N+](C)(C)C)cc2)C=CC1=[N+](C)C`, for which the TGI with SN12C renal is 22.4 µM; with RPMI-8226 leukemia, 5.44 µM; in the test with M19-MEL melanoma, 20.3 µM; in the test on UACC-257 melanoma it was 27.9 µM; in the test on SK-MEL-5 melanoma, 24.5 µM; in the test on NCI-H226 lung, 33.8 µM. The TGI in the test on SW-620 colon stood at 46.3 µM; with U251 CNS, 17.6 µM; with SNB-78 CNS it was 53.5 µM; in the test on SF-295 CNS it was 19.3 µM.

Take `CCCCCCC1CCC2CCCC(C)N12` (centres undefined): the TGI in the test on SN12C renal was over 100 µM; in the test with RPMI-8226 leukemia it was 53.9 µM; in the test on M19-MEL melanoma it was over 100 µM; in the test on UACC-257 melanoma it was over 100 µM; with SK-MEL-5 melanoma, over 100 µM; with NCI-H226 lung, over 100 µM. In addition, the TGI with SW-620 colon was 31.1 µM; in the test on HOP-18 NSCLC, over 100 µM; in the test on U251 CNS, over 100 µM; in the test on SF-295 CNS it was over 100 µM.

For `c1cnc2c(c1)-n1cccc1C1(CCOCC1)NN2`, the TGI with SN12C renal, in the test on RPMI-8226 leukemia, with M19-MEL melanoma, in the test with SK-MEL-5 melanoma, in the test on NCI-H226 lung and with SW-620 colon was over 100 µM in each case. The TGI in the test with HOP-18 NSCLC, in the test with U251 CNS and with SF-295 CNS was over 100 µM in each case.

Regarding `COC(=O)OCC1OC(N2C(=O)NC(=O)C(I)C2N=[N+]=[N-])CC1OC(=O)OC` (centres undefined), the TGI with SN12C renal, in the test with RPMI-8226 leukemia, with M19-MEL melanoma, with UACC-257 melanoma, with SK-MEL-5 melanoma and in the test with NCI-H226 lung was over 100 µM each time. For the same compound, the TGI with SW-620 colon, in the test on U251 CNS, in the test on SNB-78 CNS and in the test on SF-295 CNS was over 100 µM each time.

For the compound `CCCCCCCCCCCCNC(=O)NCC(OCC)OCC`, the TGI with SN12C renal, with RPMI-8226 leukemia, with UACC-257 melanoma, in the test on SK-MEL-5 melanoma, in the test with NCI-H226 lung and in the test with SW-620 colon was over 10 µM throughout. Also, the TGI in the test on T-47D breast, in the test on U251 CNS, in the test with SF-295 CNS and with MDA-MB-231 breast was over 10 µM each time.

Regarding `O=[N+]([O-])/C(C(Cl)=C(Cl)Cl)=C1\Nc2ccccc2O1`, the TGI was over 100 µM in the test with SN12C renal; 75.6 µM with RPMI-8226 leukemia; over 100 µM with UACC-257 melanoma; over 100 µM in the test with SK-MEL-5 melanoma; 59.7 µM with NCI-H226 lung; over 100 µM in the test with SW-620 colon. Also, the TGI in the test on T-47D breast, in the test on U251 CNS, in the test with SF-295 CNS and in the test on MDA-MB-231 breast was over 100 µM each time.

Take `O=C(Cc1ccc(Cl)c(Cl)c1)NCCCN1CCN(CCCN2CCCCC2)CC1`: the TGI amounted to 39 µM in the test with SN12C renal; 16.3 µM in the test on RPMI-8226 leukemia; 19.6 µM in the test on UACC-257 melanoma; 22.1 µM with SK-MEL-5 melanoma; 42.4 µM in the test on NCI-H226 lung; 46.7 µM with SW-620 colon. Also, the TGI with T-47D breast was 44.4 µM; with U251 CNS it was 32.5 µM; in the test with SF-295 CNS, 37.7 µM; with MDA-MB-231 breast, 28.8 µM.

Take `CCOC(=O)C(NCc1ccccc1)(NC(=O)c1ccccc1)C(F)(F)F` (centres undefined): the TGI in the test on SN12C renal, in the test on RPMI-8226 leukemia, in the test with UACC-257 melanoma, in the test with SK-MEL-5 melanoma, in the test on NCI-H226 lung and with SW-620 colon was over 100 µM throughout. Besides, the TGI in the test with T-47D breast is over 100 µM; in the test with U251 CNS, over 100 µM; with SF-295 CNS it was over 100 µM; in the test with MDA-MB-231 breast, 83.6 µM.

Turning to `[N-]=N[N+]#I1OC(C(F)(F)F)(C(F)(F)F)c2ccccc21`, the TGI was 30 µM in the test with SN12C renal; 51.8 µM in the test on RPMI-8226 leukemia; 75.9 µM with UACC-257 melanoma; 4.36 µM in the test with SK-MEL-5 melanoma; 54.1 µM in the test with NCI-H226 lung; 40 µM in the test on SW-620 colon. Besides, the TGI was determined as 27.7 µM in the test with T-47D breast, 33.8 µM with U251 CNS, 31.2 µM in the test with SF-295 CNS and 29 µM in the test with MDA-MB-231 breast.

As for `COC(=O)[C@]1(C)CCCn2c(=O)n(-c3ccccc3)c(=O)n21`, the TGI in the test with SN12C renal, in the test on RPMI-8226 leukemia, with UACC-257 melanoma, in the test on SK-MEL-5 melanoma, in the test on NCI-H226 lung and in the test with SW-620 colon was over 100 µM in each case. Besides, the TGI in the test on T-47D breast, in the test on U251 CNS, with SF-295 CNS and in the test on MDA-MB-231 breast was over 100 µM each time.

Values taken from PubChem BioAssay (NCI).
